The results in this text go back to US10912839B2, “Methods of treating cancer using compounds containing a vascular disrupting agent” (priority 2008, dated 2021).

Data set [1] can be described thus: Ex vivo prodrug stability in normal mouse liver homogenate (LC/MS/MS). The format is in vitro ADME. As to conditions: mouse, tissue homogenate; murine liver homogenate; mean of four independent experiments; read-out: Liver t½. The text has this:
(§1) Liver was representative of all normal tissues analysed. (FIG. 5) • d.
(§2) Half lives are the mean taken from four independent experiments. Liver represent murine liver homogenate and tumour represents HT1080

Data set [2] in a line: Ex vivo prodrug metabolism in HT1080 tumour homogenate (LC/MS/MS). The format is in vitro ADME, human. As to conditions: human, tissue homogenate; HT1080 tumour homogenate; mean of four independent experiments; read-out: Tumour t½.
Description: as §1, §2

The test system of another data set is HT1080 xenografts. In words: Dose response antitumour study, subcutaneous HT1080 xenografts. Format: in vivo, Balb/C mice. As to conditions: for Growth delay: vs control. As to the method: (§3) ICT-2552 and ICT-2588 (‘prodrug’) were administered as a single dose via the intraperitoneal route to Balb/C mice bearing subcutaneous HT1080 xenografts. Each of the nine dosing groups comprised 8 mice. The anti-tumour effects of the compounds were assessed by determination of tumour volume and the existence of off-target toxicity was ascertained via monitoring mouse body weight.
(§4) The dosing groups evaluated ICT-2588 (prodrug) relative to the molar equivalent dose of ICT-2552 (warhead), and were: • 10% DMSO/oil (solvent control) • ICT-2588 at 37.5 mg/kg; 50.0 mg/kg; 62.5 mg/kg; 75.0 mg/kg • ICT-2552 at 7.5 mg/kg; 10.0 mg/kg; 12.5 mg/kg; 15 mg/kg Results

A short description of data set [3]: Off-target toxicity by mouse body weight in antitumour study. The format is in vivo, Balb/C mice. As to the method:
as §3, §4
The weight of all mice was within the tolerated loss of 15% of bodyweight, therefore the compounds are not classified as toxic to the whole body system.

[4] abbreviates: ICT-2552 10.0 mg/kg single i.p.
Setting [5] is: ICT-2552 12.5 mg/kg single i.p.
The mark [6] stands for this setting: ICT-2552 15.0 mg/kg single i.p.

Structures are written as SMILES. Non-standard residues stand in square brackets, D forms with d. Residues, ends and D or L forms follow the SMILES beside them. *: point of attachment. NH(Colchicin-10-yl) = COc1cc2c(c(OC)c1OC)-c1ccc(N*)c(=O)cc1[C@@H](NC(C)=O)CC2; FITC = O=C1OC2(c3ccc(O)cc3Oc3cc(O)ccc32)c2ccc(NC(=S)*)cc21; hPhe = N[C@@H](CCc1ccccc1)C(=O)O; Cit = NC(=O)NCCC[C@H](N)C(=O)O; βAla = NCCC(=O)O

On to `COc1cc2c(c(OC)c1OC)-c1ccc(NC(=O)[C@H](Cc3ccc(O)cc3)NC(=O)[C@H](CC(C)C)NC(=O)[C@H](C)NC(=O)[C@H](CCc3ccccc3)NC(=O)CNC(=O)[C@H](CCCNC(N)=O)NC(=O)[C@H](CO)NC(=O)[C@H](CCCNC(=N)N)NC(=O)CCNC(=S)Nc3ccc4c(c3)C(=O)OC43c4ccc(O)cc4Oc4cc(O)ccc43)c(=O)cc1[C@@H](NC(C)=O)CC2` [ICT3053] ({FITC-βAla}-RS[Cit]G[hPhe]ALY-{NH(Colchicin-10-yl)}), for which the half-life is 76 min in data set [1] and 17 min in data set [2].
As to `COc1cc2c(c(OC)c1OC)-c1ccc(NC(=O)[C@H](Cc3ccc(O)cc3)NC(=O)[C@H](CC(C)C)NC(=O)[C@H](CO)NC(=O)[C@H](CCc3ccccc3)NC(=O)CNC(=O)[C@H](CCCNC(N)=O)NC(=O)[C@H](CO)NC(=O)[C@H](CCCNC(=N)N)NC(=O)CCNC(=S)Nc3ccc4c(c3)C(=O)OC43c4ccc(O)cc4Oc4cc(O)ccc43)c(=O)cc1[C@@H](NC(C)=O)CC2` [ICT3054] ({FITC-βAla}-RS[Cit]G[hPhe]SLY-{NH(Colchicin-10-yl)}), the values for the half-life in data set [1] and in data set [2] were 66 min and 9 min, respectively.
In the same order, the values of `COc1cc2c(c(OC)c1OC)-c1ccc(NC(=O)[C@H](Cc3ccc(O)cc3)NC(=O)[C@H](CC(C)C)NC(=O)[C@H](CC(=O)O)NC(=O)[C@H](CCc3ccccc3)NC(=O)CNC(=O)[C@H](CCCNC(N)=O)NC(=O)[C@H](CO)NC(=O)[C@H](CCCNC(=N)N)NC(=O)CCNC(=S)Nc3ccc4c(c3)C(=O)OC43c4ccc(O)cc4Oc4cc(O)ccc43)c(=O)cc1[C@@H](NC(C)=O)CC2` [ICT3055] ({FITC-βAla}-RS[Cit]G[hPhe]DLY-{NH(Colchicin-10-yl)}) are 67 min and 7 min.
The like results for `COc1cc2c(c(OC)c1OC)-c1ccc(NC(=O)[C@H](Cc3ccc(O)cc3)NC(=O)[C@H](CC(C)C)NC(=O)[C@H](CC(N)=O)NC(=O)[C@H](CCc3ccccc3)NC(=O)CNC(=O)[C@H](CCCNC(N)=O)NC(=O)[C@H](CO)NC(=O)[C@H](CCCNC(=N)N)NC(=O)CCNC(=S)Nc3ccc4c(c3)C(=O)OC43c4ccc(O)cc4Oc4cc(O)ccc43)c(=O)cc1[C@@H](NC(C)=O)CC2` [ICT3078] ({FITC-βAla}-RS[Cit]G[hPhe]NLY-{NH(Colchicin-10-yl)}) were, in that order, 76 min and 11 min.
In the same order, the values of `COc1cc2c(c(OC)c1OC)-c1ccc(NC(=O)[C@H](Cc3ccc(O)cc3)NC(=O)[C@H](CC(C)C)NC(=O)[C@H](CC(C)C)NC(=O)[C@H](CCc3ccccc3)NC(=O)CNC(=O)[C@H](CCCNC(N)=O)NC(=O)[C@H](CO)NC(=O)[C@H](CCCNC(=N)N)NC(=O)CCNC(=S)Nc3ccc4c(c3)C(=O)OC43c4ccc(O)cc4Oc4cc(O)ccc43)c(=O)cc1[C@@H](NC(C)=O)CC2` [ICT3080] ({FITC-βAla}-RS[Cit]G[hPhe]LLY-{NH(Colchicin-10-yl)}) are 134 min and 48 min.
With `COc1cc2c(c(OC)c1OC)-c1ccc(N)c(=O)cc1[C@@H](NC(C)=O)CC2` [ICT-2552, azademethylcolchicine], the “Mean time to RTV2” value in the data set with HT1080 xenografts (ICT-2552 7.5 mg/kg single i.p.) was 4.0 days; in the data set with HT1080 xenografts (setting [4]), 4.4 days; with HT1080 xenografts (setting [5]), 4.5 days; in the data set on HT1080 xenografts (setting [6]), 4.1 days. The “Median time RTV2” value in the data set on HT1080 xenografts (ICT-2552 7.5 mg/kg single i.p.) worked out at 3.8 days; with HT1080 xenografts (setting [4]) it was 4.2 days; in the data set with HT1080 xenografts (setting [5]), 4.7 days; with HT1080 xenografts (setting [6]), 4.1 days. In addition, the Growth delay was found to be 1.6 days with HT1080 xenografts (ICT-2552 7.5 mg/kg single i.p.), 2.0 days with HT1080 xenografts (setting [4]), 2.5 days in the data set with HT1080 xenografts (setting [5]) and 1.9 days in the data set on HT1080 xenografts (setting [6]). For the same compound, in the data set on HT1080 xenografts (all evaluated doses), the “delay in tumour growth” value is “significant delay in tumour growth”. Moreover, the tumour response entry with HT1080 xenografts (all tested dose levels) was “Tumour responses were observed”. Moreover, the “Maximum % weight loss” value in data set [3] (ICT-2552 7.5 mg/kg) is on record as 3%; in data set [3] (ICT-2552 10.0 mg/kg) it was 6 (6) %; in data set [3] (ICT-2552 12.5 mg/kg) it was 6%; in data set [3] (ICT-2552 15.0 mg/kg), 5%. In addition, the “day of maximum weight loss” value is 4 days in data set [3] (ICT-2552 7.5 mg/kg), 6 (6) day in data set [3] (ICT-2552 10.0 mg/kg), 1 days in data set [3] (ICT-2552 12.5 mg/kg) and 1 days in data set [3] (ICT-2552 15.0 mg/kg).
